Patent US11365187B2, “Pesticidally active pyrazole derivatives” (SYNGENTA PARTICIPATIONS AG, priority 2017, dated 2022)
Read-outs that look alike come from different tables or passages of the source.

Tests used:
Type in all cases: in vivo
[1] = test system: Euschistus heros (Neotropical Brown Stink Bug); test: Euschistus heros feeding/contact activity on soybean leaves; conditions: 120 h
Experimental: Euschistus heros (Neotropical Brown Stink Bug): Feeding/contact activity
Soybean leaves on agar in 24-well microtiter plates were sprayed with aqueous test solutions prepared from 10′000 ppm DMSO stock solutions. After drying the leaves were infested with N2 nymphs. The samples were assessed for mortality 5 days after infestation.

[2] = test system: Myzus persicae (Green peach aphid); test: Myzus persicae feeding/contact activity on sunflower leaf discs; conditions: foliar, 144 h
Experimental: Myzus persicae (Green peach aphid): Feeding/Contact activity
Sunflower leaf discs were placed onto agar in a 24-well microtiter plate and sprayed with aqueous test solutions prepared from 10′000 ppm DMSO stock solutions. After drying, the leaf discs were infested with an aphid population of mixed ages. The samples were assessed for mortality 6 days after infestation.

[3] = test system: Plutella xylostella (Diamond back moth); test: Plutella xylostella feeding/contact activity on artificial diet; conditions: 120 h
Experimental: Plutella xylostella (Diamond back moth): Feeding/contact activity
24-well microtiter plates with artificial diet were treated with aqueous test solutions prepared from 10′000 ppm DMSO stock solutions by pipetting. After drying, the plates were infested with L2 larvae (10 to 15 per well). The samples were assessed for mortality 5 days after infestation.

[4] = test system: Spodoptera littoralis (Egyptian cotton leaf worm); test: Spodoptera littoralis feeding/contact activity on cotton leaf discs; conditions: foliar, 72 h
Experimental: Spodoptera littoralis (Egyptian cotton leaf worm): Feeding/contact activity
Cotton leaf discs were placed onto agar in 24-well microtiter plates and sprayed with aqueous test solutions prepared from 10′000 ppm DMSO stock solutions. After drying the leaf discs were infested with five L1 larvae. The samples were assessed for mortality 3 days after infestation. […] 2, 3, 4, 5, 6, 7, 8, 9, 10, 11, 12, 13, 14, 15, 16, 17, 18, 19, 20, 21, 22, 23, 24, 25, 26, 27, 28 and 29.

[5] = test system: Tetranychus urticae (Two-spotted spider mite); test: Tetranychus urticae feeding/contact activity on bean leaf discs; conditions: foliar, 192 h, read-out: mortality on mixed population (mobile stages)
Experimental: Tetranychus urticae (Two-spotted spider mite): Feeding/contact activity
Bean leaf discs on agar in 24-well microtiter plates were sprayed with aqueous test solutions prepared from 10′000 ppm DMSO stock solutions. After drying the leaf discs were infested with a mite population of mixed ages. The samples were assessed for mortality on mixed population (mobile stages) 8 days after infestation.

[6] = application rate 200 ppm, N2 nymphs, assessed 5 days after infestation, read-out: mortality
[7] = application rate 200 ppm, aphid population of mixed ages, assessed 6 days after infestation, read-out: mortality
[8] = application rate 200 ppm, L2 larvae, assessed 5 days after infestation, read-out: mortality
[9] = application rate 200 ppm, L1 larvae, assessed 3 days after infestation, read-out: mortality
[10] = application rate 200 ppm, mite population of mixed ages, assessed 8 days after infestation

Measured: mortality at 200 ppm

CN(C(=O)c1cc(-c2cnn(-c3c(OC(F)F)c(C(F)(C(F)(F)F)C(F)(F)F)nn3C)c2)ccc1Cl)C1CC1 [Example 25, 2-chloro-N-cyclopropyl-5-[1-[4-(difluoromethoxy)-2-methyl-5-[1,2,2,2-tetrafluoro-1-(trifluoromethyl)ethyl]pyrazol-3-yl]pyrazol-4-yl]-N-methyl-benzamide]
≥ 80%: [1]; [6] | [2]; [7] | [3]; [8] | [4]; [9] | [5]; [10]

Cn1nc(C(F)(C(F)(F)F)C(F)(F)F)c(OC(F)F)c1-n1cc(-c2ccc(Cl)c(C(=O)N(C(=O)OCCl)C3(C#N)CC3)c2)cn1 [Example 29, chloromethyl N-[2-chloro-5-[1-[4-(difluoromethoxy)-2-methyl-5-[1,2,2,2-tetrafluoro-1-(trifluoromethyl)ethyl]pyrazol-3-yl]pyrazol-4-yl]benzoyl]-N-(1-cyanocyclopropyl)carbamate]
≥ 80%: [1] | [2] | [3] | [4] | [5]

CCN(C(=O)c1cc(-c2cnn(-c3c(OC(F)F)c(C(F)(C(F)(F)F)C(F)(F)F)nn3C)c2)ccc1Cl)C1CC1 [Example 26, 2-chloro-N-cyclopropyl-5-[1-[4-(difluoromethoxy)-2-methyl-5-[1,2,2,2-tetrafluoro-1-(trifluoromethyl)ethyl]pyrazol-3-yl]pyrazol-4-yl]-N-ethyl-benzamide]
≥ 80%: [1]; [6] | [2]; [7] | [3]; [8] | [4]; [9] | [5]; [10]

COCN(C(=O)c1cc(-c2cnn(-c3c(OC(F)F)c(C(F)(C(F)(F)F)C(F)(F)F)nn3C)c2)ccc1Cl)C1(C#N)CC1 [Example 9, 2-chloro-N-(1-cyanocyclopropyl)-5-[1-[4-(difluoromethoxy)-2-methyl-5-[1,2,2,2-tetrafluoro-1-(trifluoromethyl)ethyl]pyrazol-3-yl]pyrazol-4-yl]-N-(methoxymethyl)benzamide]
≥ 80%: [1]; [6] | [2]; [7] | [3]; [8] | [4]; [9] | [5]; [10]

CCOC(=O)N(C(=O)c1cc(-c2cnn(-c3c(OC(F)F)c(C(F)(C(F)(F)F)C(F)(F)F)nn3C)c2)ccc1Cl)C1CC1 [Example 15, ethyl N-[2-chloro-5-[1-[4-(difluoromethoxy)-2-methyl-5-[1,2,2,2-tetrafluoro-1-(trifluoromethyl)ethyl]pyrazol-3-yl]pyrazol-4-yl]benzoyl]-N-cyclopropyl-carbamate]
≥ 80%: [1] | [2] | [3] | [4] | [5]

COCN(C(=O)c1cc(-c2cnn(-c3c(OC(F)F)c(C(F)(C(F)(F)F)C(F)(F)F)nn3C)c2)ccc1Cl)C1CC1 [Example 28, 2-chloro-N-cyclopropyl-5-[1-[4-(difluoromethoxy)-2-methyl-5-[1,2,2,2-tetrafluoro-1-(trifluoromethyl)ethyl]pyrazol-3-yl]pyrazol-4-yl]-N-(methoxymethyl)benzamide]
≥ 80%: [1]; [6] | [2]; [7] | [3]; [8] | [4]; [9] | [5]; [10]

Cn1nc(C(F)(C(F)(F)F)C(F)(F)F)c(OC(F)F)c1-n1cc(-c2ccc(Cl)c(C(=O)N(CC#N)C3CC3)c2)cn1 [Example 16, 2-chloro-N-(cyanomethyl)-N-cyclopropyl-5-[1-[4-(difluoromethoxy)-2-methyl-5-[1,2,2,2-tetrafluoro-1-(trifluoromethyl)ethyl]pyrazol-3-yl]pyrazol-4-yl]benzamide]
≥ 80%: [1]; [6] | [2]; [7] | [3]; [8] | [4]; [9] | [5]; [10]
